Counter-ions that a name gives are not always drawn. Like-named read-outs stand apart in the source and are kept apart here.
Target: T1, human muscarinic acetylcholine M1 receptor (Homo sapiens, UniProt P11229)
T1 construct: expressed in transfected cells; host or cells: CHO-K1
T1 sequence (P11229 1-460): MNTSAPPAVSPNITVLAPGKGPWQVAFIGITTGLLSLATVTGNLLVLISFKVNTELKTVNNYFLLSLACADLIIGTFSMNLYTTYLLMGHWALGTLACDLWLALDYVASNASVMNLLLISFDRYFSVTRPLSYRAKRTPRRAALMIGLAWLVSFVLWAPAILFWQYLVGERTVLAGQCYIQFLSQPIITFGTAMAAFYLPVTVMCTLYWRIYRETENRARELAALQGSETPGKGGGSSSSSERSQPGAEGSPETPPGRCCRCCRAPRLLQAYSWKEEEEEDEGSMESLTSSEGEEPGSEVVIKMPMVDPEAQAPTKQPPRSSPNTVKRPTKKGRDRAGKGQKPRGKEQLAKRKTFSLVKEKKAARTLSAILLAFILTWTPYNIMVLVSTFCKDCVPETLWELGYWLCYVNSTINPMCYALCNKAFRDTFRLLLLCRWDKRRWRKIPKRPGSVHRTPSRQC
Assay: M1 PAM Assay (IP-One HTRF, IP1 accumulation in M1-CHO cells)
Assay type: cell-based
Description: Then diluted compounds (0.6% DMSO final concentration) are added together with EC20 of acetylcholine and incubated with the cells for 30 min at 37° C., 5% CO2.
CHO-K1 cells stably transfected with human muscarinic acetylcholine M1 receptor are cultured in Ham's F12 medium containing 10% heat inactivated fetal calf serum, 2 mM L-glutamine and Penicillin-Streptomycin grown in a humidified atmosphere at 5% CO2/95% air at 37° C.

[1] = CHO-K1 cells stably transfected with human M1 receptor, compounds added with EC20 of acetylcholine (25 nM), 30 min, intracellular IP1 by IP-One HTRF, read-out: M1 PAM EC50

Compound	EC50 [1] [nM]	EC50 [nM]
Cc1nc2c3c(nn2c(C)c1Cl)CN(C(=O)c1ccc(F)cc1O[C@H]1CCNC[C@@H]1F)C3 (racemic) [Example 1]	< 200	
Cc1nc2c3c(nn2c(C)c1Cl)CN(C(=O)c1ccc(F)cc1O[C@H]1CCN(C)C[C@@H]1F)C3 (racemic) [Example 2, (anti)-(3-chloro-2,4-dimethyl-7H-pyrrolo[3′,4′:3,4]pyrazolo[1,5-a]pyrimidin-8(9H)-yl)(4-fluoro-2-((-3-fluoro-1-methylpiperidin-4-yl)oxy)phenyl)methanone]	200 to 1000	
Cc1nc2c3c(nn2c(C)c1Cl)CN(C(=O)c1ccccc1O[C@H]1CNC[C@@H]1O)C3 (racemic) [Example 4, (anti)-(6-Chloro-5,7-dimethyl-1H,3H-2,4,7a,8-tetraaza-cyclopenta[a]inden-2-yl)-[2-(4-hydroxy-pyrrolidin-3-yloxy)-phenyl]-methanone]	200 to 1000	
Cc1nc2c3c(nn2c(C)c1Cl)CN(C(=O)c1ccccc1O[C@H]1CCC[C@@H]1O)C3 (racemic) [Example 8, (anti)-(6-Chloro-5,7-dimethyl-1H,3H-2,4,7a,8-tetraaza-cyclopenta[a]inden-2-yl)-[2-(2-hydroxy-cyclopentyloxy)-phenyl]-methanone]	200 to 1000	
Cc1nc2c3c(nn2c(C)c1Cl)CN(C(=O)c1ccccc1O[C@H]1CN(C)C[C@@H]1O)C3 (racemic) [Example 13, (anti)-(6-Chloro-5,7-dimethyl-1H,3H-2,4,7a,8-tetraaza-cyclopenta[a]inden-2-yl)-[2-(4-hydroxy-1-methyl-pyrrolidin-3-yloxy)-phenyl]-methanone]	1000 to 3000	
Cc1nc2c3c(nn2c(C)c1Cl)CN(C(=O)c1ccccc1O[C@H]1CCCC[C@@H]1O)C3 (racemic) [Example 17, (anti)-(3-chloro-2,4-dimethyl-7H-pyrrolo[3′,4′:3,4]pyrazolo[1,5-a]pyrimidin-8(9H)-yl)(2-((2-hydroxycyclohexyl)oxy)phenyl)methanone]	1000 to 3000	
Cc1nc2c3c(nn2c(C)c1Cl)CN(C(=O)c1ccc(F)cc1O[C@H]1CCNC[C@H]1F)C3 (racemic) [Example 18]	200 to 1000	
Cc1nc2c3c(nn2c(C)c1Cl)CN(C(=O)c1ccccc1O[C@H]1COC[C@@H]1O)C3 (racemic) [Example 21, (anti)-(3-chloro-2,4-dimethyl-7H-pyrrolo[3′,4′:3,4]pyrazolo[1,5-a]pyrimidin-8(9H)-yl)(2-((4-hydroxytetrahydrofuran-3-yl)oxy)phenyl)methanone]	1000 to 3000	
Cc1nc2c3c(nn2c(C)c1Cl)CN(C(=O)c1ccccc1O[C@H]1CNC[C@H]1F)C3 (racemic) [Example 25, (syn)-(6-Chloro-5,7-dimethyl-1H,3H-2,4,7a,8-tetraaza-cyclopenta[a]inden-2-yl)-[2-(4-fluoro-pyrrolidin-3-yloxy)-phenyl]-methanone]	200 to 1000	
Cc1nc2c3c(nn2c(C)c1Cl)CN(C(=O)c1ccc(F)cc1O[C@H]1COC[C@@H]1O)C3 (racemic) [Example 26, (anti)-(3-chloro-2,4-dimethyl-7H-pyrrolo[3′,4′:3,4]pyrazolo[1,5-a]pyrimidin-8(9H)-yl)(4-fluoro-2-((4-hydroxytetrahydrofuran-3-yl)oxy)phenyl)methanone]	1000 to 3000	
Cc1nc2c3c(nn2c(C)c1Cl)CN(C(=O)c1ccc(F)cc1O[C@H]1CNC[C@@H]1O)C3 (racemic) [Example 27, (anti)-(6-Chloro-5,7-dimethyl-1H,3H-2,4,7a,8-tetraaza-cyclopenta[a]inden-2-yl)-[4-fluoro-2-(4-hydroxy-pyrrolidin-3-yloxy)-phenyl]-methanone]	200 to 1000	
Cc1nc2c3c(nn2c(C)c1Cl)CN(C(=O)c1ccc(F)cc1OC1CC2CC(F)C(C1)N2C)C3 (racemic) [Example 38, (3-chloro-2,4-dimethyl-7H-pyrrolo[3′,4′:3,4]pyrazolo[1,5-a]pyrimidin-8(9H)-yl)(4-fluoro-2-(((3-endo)-(6-endo)-6-fluoro-8-methyl-8-azabicyclo[3.2.1]octan-3-yl)oxy)phenyl)methanone]		< 200
Cc1nc2c3c(nn2c(C)c1Cl)CN(C(=O)c1ccc(F)cc1OC1CC2C[C@H](O)C(C1)N2C)C3 (mixture of isomers) [Example 39, (3-chloro-2,4-dimethyl-7H-pyrrolo[3′,4′:3,4]pyrazolo[1,5-a]pyrimidin-8(9H)-yl)(4-fluoro-2-(((3-endo)-(6-exo)-6-hydroxy-8-methyl-8-azabicyclo[3.2.1]octan-3-yl)oxy)phenyl)methanone]		< 200
Cc1nc2c3c(nn2c(C)c1Cl)CN(C(=O)c1ccc(F)cc1O[C@H]1CN(C)C[C@@H]1O)C3 (racemic) [Example 45, (anti)-(6-Chloro-5,7-dimethyl-1H,3H-2,4,7a,8-tetraaza-cyclopenta[a]inden-2-yl)-[4-fluoro-2-(4-hydroxy-1-methyl-pyrrolidin-3-yloxy)-phenyl]-methanone]	200 to 1000	
CN1C2CC(Oc3cc(F)ccc3C(=O)N3Cc4nn5cc(Cl)cnc5c4C3)CC1[C@@H](O)C2 (mixture of isomers) [Example 69, (3-chloro-7H-pyrrolo[3′,4′:3,4]pyrazolo[1,5-a]pyrimidin-8(9H)-yl)(4-fluoro-2-(((3-endo)-(6-exo)-6-hydroxy-8-methyl-8-azabicyclo[3.2.1]octan-3-yl)oxy)phenyl)methanone]		< 200
Cc1nc2c3c(nn2c(C)c1Cl)CN(C(=O)c1ccccc1O[C@H]1CCNC[C@@H]1O)C3 (single isomer, unassigned) [Example 5]	200 to 1000	
Cc1nc2c3c(nn2c(C)c1Cl)CN(C(=O)c1ccc(F)cc1O[C@H]1CC[C@H](O)CC1)C3 (single isomer, unassigned) [Example 41, (anti)-(6-Chloro-5,7-dimethyl-1H,3H-2,4,7a8-tetraaza-cyclopenta[a]inden-2-yl)-[4-fluoro-2-(4-hydroxy-cyclohexyloxy)-phenyl]-methanone]	< 200	
Cc1nc2c3c(nn2c(C)c1Cl)CN(C(=O)c1ccc(F)cc1OCCN1CCC[C@H]1C)C3 (single isomer, unassigned) [Example 44]	1000 to 3000	
Cc1nc2c3c(nn2c(C)c1Cl)CN(C(=O)c1ccc(F)cc1O[C@H]1CC[C@@H](O)CC1)C3 (single isomer, unassigned) [Example 49, (syn)-(6-Chloro-5,7-dimethyl-1H,3H-2,4,7a,8-tetraaza-cvclopenta[a]inden-2-yl)-[4-fluoro-2-(4-hydroxy-cyclohexyloxy)-phenyl]-methanone]	200 to 1000	
O=C(c1ccc(F)cc1O[C@H]1C[C@H]2CC[C@@H](C1)N2CCO)N1Cc2nn3cc(Cl)cnc3c2C1 (single isomer, unassigned) [Example 50, (3-chloro-7H-pyrrolo[3′,4′:3,4]pyrazolo[1,5-a]pyrimidin-8(9H)-yl)(4-fluoro-2-{[(3-endo)-8-(2-hydroxyethyl)-8-azabicyclo[3.2.1]oct-3-yl]oxy}phenyl)methanone]		200 to 1000
O=C(c1ccc(F)cc1O[C@H]1C[C@H]2CC[C@@H](C1)N2CCF)N1Cc2nn3cc(Cl)cnc3c2C1 (single isomer, unassigned) [Example 51, (3-chloro-7H-pyrrolo[3′,4′:3,4]pyrazolo[1,5-a]pyrimidin-8(9H)-yl)(4-fluoro-2-{[(3-endo)-8-(2-fluoroethyl)-8-azabicyclo[3.2.1]oct-3-yl]oxy}phenyl)methanone]		< 200
Cc1nc2c3c(nn2c(C)c1Cl)CN(C(=O)c1ccc(F)cc1O[C@H]1CCNC[C@@H]1O)C3 (single isomer, unassigned) [Example 70, (3-chloro-2,4-dimethyl-7H-pyrrolo[3′,4′:3,4]pyrazolo[1,5-a]pyrimidin-8(9H)-yl)(4-fluoro-2-(((3S,4S)-3-hydroxypiperidin-4-yl)oxy)phenyl)methanone hydrochloride or (3-chloro-2,4-dimethyl-7H-pyrrolo[3′,4′:3,4]pyrazolo[1,5-a]pyrimidin-8(9H)-yl)(4-fluoro-2-(((3R,4R)-3-hydroxypiperidin-4-yl)oxy)phenyl)methanone hydrochloride]	200 to 1000	
Cc1nc2c3c(nn2c(C)c1Cl)CN(C(=O)c1ccc(F)cc1O[C@@H]1CCN[C@@H](C)C1)C3 (stereo in doubt) [Example 24, (3-chloro-2,4-dimethyl-7H-pyrrolo[3′,4′:3,4]pyrazolo[1,5-a]pyrimidin-8(9H)-yl)(4-fluoro-2-((2-methylpiperidin-4-yl)oxy)phenyl)methanone hydrochloride]	200 to 1000	
Cc1nc2c3c(nn2c(C)c1Cl)CN(C(=O)c1ccc(F)cc1O[C@H]1CCN[C@@H](C)C1)C3 (stereo in doubt) [Example 48, (3-chloro-2,4-dimethyl-7H-pyrrolo[3′,4′:3,4]pyrazolo[1,5-a]pyrimidin-8(9H)-yl)(4-fluoro-2-((2-methylpiperidin-4-yl)oxy)phenyl)methanone hydrochloride]	200 to 1000	
Cc1nc2c3c(nn2c(C)c1Cl)CN(C(=O)c1ccncc1OC1CCN(C)CC1)C3 [Example 3, (3-chloro-2,4-dimethyl-7H-pyrrolo[3′,4′:3,4]pyrazolo[1,5-a]pyrimidin-8(9H)-yl)(3-((1-methylpiperidin-4-yl)oxy)pyridin-4-yl)methanone]	1000 to 3000	
Cc1nc2c3c(nn2c(C)c1Cl)CN(C(=O)c1ccccc1C(C)N1CCNCC1)C3 (centres unmarked) [Example 6]	1000 to 3000	
